The values that follow come from patent US20220031657A1 (NOVARTIS AG, priority 2017, published 2022).

Assay [1] concerns MCF-7 xenograft. The assay can be described thus: Orthotopic MCF-7 xenograft model in NSG mice. The format is in vivo. The conditions noted are these: for anti-tumor effect in words: LSZ102 20 mg/kg QD, tamoxifen 60 mg/kg, fulvestrant 5 mg/mouse.
Protocol: Mice were supplemented with estradiol (0.72 mg estradiol/90-day release pellets) to further support MCF-7 tumor growth several days prior to cell implantation. MCF-7 tumors were established in female NSG mice by injection of 10×10^6 cells in 50% Matrigel® into the axillary mammary fat pad area of each mouse. When tumors reached an average of 200 mm^3, mice were randomized according to tumor volume into treatment groups (n=8).
The next assay has as its system MCF-7 cell line. The assay can be described thus: Insulin driven proliferation assay. The format is cell-based, human.
Assay [2] relates to MCF-7 xenograft. The assay can be described thus: Dose fractionation study in mice with MCF-7 xenografts. The format is in vivo. The conditions noted are these: 5 mg/mouse SC QWeek, Day 61.
For a further assay, the target named is T1, ERα (Homo sapiens, UniProt P03372).
T1 sequence (P03372 1-595): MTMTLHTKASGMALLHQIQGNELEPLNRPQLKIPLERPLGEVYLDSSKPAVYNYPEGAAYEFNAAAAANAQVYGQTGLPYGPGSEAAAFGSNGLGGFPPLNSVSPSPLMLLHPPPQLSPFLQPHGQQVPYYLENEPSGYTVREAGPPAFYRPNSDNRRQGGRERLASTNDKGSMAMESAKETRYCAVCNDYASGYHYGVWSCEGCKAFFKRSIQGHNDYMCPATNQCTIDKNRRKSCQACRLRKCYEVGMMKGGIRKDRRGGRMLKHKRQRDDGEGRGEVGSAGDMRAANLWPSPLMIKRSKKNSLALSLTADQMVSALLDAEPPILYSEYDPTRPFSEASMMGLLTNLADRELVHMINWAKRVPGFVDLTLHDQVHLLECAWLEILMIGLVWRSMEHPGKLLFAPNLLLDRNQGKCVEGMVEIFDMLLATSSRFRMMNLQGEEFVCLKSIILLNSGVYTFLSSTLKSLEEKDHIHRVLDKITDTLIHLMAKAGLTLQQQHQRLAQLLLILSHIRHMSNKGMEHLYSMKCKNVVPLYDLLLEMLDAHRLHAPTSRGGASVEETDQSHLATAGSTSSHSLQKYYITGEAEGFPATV
The assay can be described thus: Immunoblot ERα protein quantification, MCF-7 parental cells. Particulars: 24 hr. Background: In western blotting, separated proteins are transferred to a membrane and probed.

The next assay has as its system HBRX1298 xenograft. The assay can be described thus: ER+ primary breast cancer model HBRX1298 in NSG mice. The format is in vivo. The conditions noted are these: 5 mg/mouse SC QWeek, Day 63.

Marks after values point to notes of the source that are not given here.

Protocol for HBRX1298 xenograft: HBRX1298 tumors were established in NSG female mice by injection of a tumor brei into the inguinal mammary fat pad area. Mice were implanted with 0.72 mg estradiol/90-day release pellets several days prior to cell implantation. When tumors reached approximately 250 mm3, mice were randomized according to tumor volume into treatment groups (n=6 for all, except n=4 for estradiol withdrawal) on Day 38.

Turning to `CC/C(=C(\c1ccccc1)c1ccc(OCCN(C)C)cc1)c1ccccc1` [Tamoxifen], in the assay with MCF-7 xenograft [1], the “anti-tumor effect in words” value is recorded as “tumor stasis”. Also, the “effect in insulin driven proliferation assay” value in the assay with MCF-7 cell line is reported as “unaffected”.
As to `C[C@]12CC[C@@H]3c4ccc(O)cc4C[C@@H](CCCCCCCCC[S+]([O-])CCCC(F)(F)C(F)(F)F)[C@H]3[C@@H]1CC[C@@H]2O` (some centres unmarked) [Fulvestrant], the “ΔT/ΔC (%)” value is given as 24* % with MCF-7 xenograft [1] (5 mg/mouse SC QWeek, Day 48); 18* % in the assay with MCF-7 xenograft [2]; 48* % with HBRX1298 xenograft. Moreover, the “anti-tumor effect in words” value with MCF-7 xenograft [1] is listed as “suppression of growth”. Moreover, the ER protein levels entry at ERα is listed as “significantly reduce ER protein levels”. Also, the “effect in insulin driven proliferation assay” value in the assay with MCF-7 cell line is recorded as “inhibited”.
